Data taken from patent US11262349B2, “Multiplexed immune cell assays on a micropillar/microwell chip platform” (Cleveland State University, priority 2017, dated 2022).

How the values were obtained:
[1] = test system: TNF-α production by RAW 264.7 cells; test: Cytokine secretion (TNF-α) by immune cells on micropillar/microwell chip, 32-plex mouse cytokine array; assay type: cell-based; conditions: glycopolymers at 1250 μg/mL, LPS at 10 μg/mL, 24 hours, cell supernatant (FIG. 16A)
Procedure: (§1) FIGS. 9 and 16A-D are discussed in this example.
(§2) The micropillars on a micropillar chip were coated with 0.01% PMA-OD. Then 16.6 mM BaCl2/0.0033% PLL was printed on the micropillars using a microarray spotter.
(§3) An immune-cell suspension was prepared using RAW 264.7 cells, 0.75% alginate and 0.5 mg/mL Matrigel and then printed onto the coated micropillars. 60 nL spots of the immune-cell suspension were printed onto a micropillar chip with dried PLL-BaCl2 at a density of 3×10^6 cells/mL. After 2 minutes of alginate gelation and 24-hour incubation with a microwell chip containing 950 nL of cell growth media, the micropillar chip containing immune cells was sandwiched with a new microwell chip containing 950 nL of glycopolymers (polyacrylamide, N-glucosyl polymer, N-galactosyl polymer, N-mannosyl polymer, N-GlcNAc polymer, N-lactosyl polymer, N-α2,3 sialolactosyl polymer, and Nα2,6-sialolactosyl polymer) at 1250 μg/mL and LPS at 10 μg/mL, and incubated at 37° C. and 5% CO2 for 24 hours.
(§4) Separately, immune cells were cultured in 96-well plates in growth media and 10 μg/mL LPS for 24 hours as negative and positive controls for 2D monolayer culture.
(§5) The cell supernatants for all conditions were collected from the microwell chip and the 96-well plate, centrifuged, and analyzed for 32-plex mouse cytokine array measurements. […]

CD40 on RAW 264.7 cells = test: Surface biomarker expression (CD40) in immune cells on micropillar/microwell chip; assay type: cell-based, mouse; conditions: 3D alginate/Matrigel, glycopolymers at 1250 μg/mL, LPS at 10 μg/mL, 48 hours, vs growth medium control (FIG. 15A)
Procedure: (§6) FIGS. 8, 14, and 15 are discussed in Example 5.
(§7) The micropillars of a 384-pillar micropillar chip were coated with 0.01% PMA-OD. Then 16.6 mM BaCl2/0.0033% PLL were printed onto the micropillars using a […].
(§8) An immune-cell suspension was prepared using 0.75% alginate and 0.5 mg/mL Matrigel and then printed onto the coated micropillars.
(§9) Growth media was then printed into the microwells on a microwell chip using a […].
(§10) The micropillar chip was then sandwiched with the microwell chip for 30 minutes and incubated for 24 hours with fresh growth media.
(§11) Next, various glycopolymers at 1250 μg/mL (polyacrylamide, N-glucosyl polymer, N-mannosyl polymer, N-lactosyl polymer, N-α2,3-sialolactosyl polymer, and N-α2,6-sialolactosyl polymer) and LPS at 10 μg/mL [701] were printed into the microwells.
(§12) The micropillar chip was then sandwiched with the microwell plate containing glycopolymers and LPS [701] for 48 hours. The micropillar chip was then rinsed with TBS [801] for 10 minutes, then incubated with ice-cold methanol and acetone (1:1 ratio) for 10 minutes at room temperature. The micropillar chip was then rinsed with TBS twice for 5 minutes and incubated with blocking buffer (SuperBlock) for 1 hour at room temperature. […]

[2] = test system: Class II MHC on RAW 264.7 cells; test: Surface biomarker expression (class II MHC) in immune cells on micropillar/microwell chip; assay type: cell-based, mouse; conditions: 3D alginate/Matrigel, glycopolymers at 1250 μg/mL, LPS at 10 μg/mL, 48 hours, vs growth medium control (FIG. 15D)
Procedure: as §6, §7, §8, §9, §10, §11, §12

[3] = test system: IL-10 production by RAW 264.7 cells; test: Cytokine secretion (IL-10) by immune cells on micropillar/microwell chip, 32-plex mouse cytokine array; assay type: cell-based; conditions: glycopolymers at 1250 μg/mL, LPS at 10 μg/mL, 24 hours, cell supernatant (FIG. 16D)
Procedure: as §1, §2, §3, §4, §5

[4] = test system: IL-6 production by RAW 264.7 cells; test: Cytokine secretion (IL-6) by immune cells on micropillar/microwell chip, 32-plex mouse cytokine array; assay type: cell-based; conditions: glycopolymers at 1250 μg/mL, LPS at 10 μg/mL, 24 hours, cell supernatant (FIG. 16B)
Procedure: as §1, §2, §3, §4, §5

CD80 on RAW 264.7 cells = test: Surface biomarker expression (CD80) in immune cells on micropillar/microwell chip; assay type: cell-based, mouse; conditions: 3D alginate/Matrigel, glycopolymers at 1250 μg/mL, LPS at 10 μg/mL, 48 hours, vs growth medium control (FIG. 15B)
Procedure: as §6, §7, §8, §9, §10, §11, §12

For lipopolysaccharide [LPS], the TNF-α production [1] was “significantly stimulated”, the “expression level of CD40 marker” value (CD40 on RAW 264.7 cells) was “significantly enhanced” and the “expression level of class II MHC marker” value [2] was “significantly enhanced”. For the same substance, the IL-10 production [3] was “significantly stimulated”, the IL-6 production [4] was “significantly stimulated” and the “expression level of CD80 marker” value (CD80 on RAW 264.7 cells) was “enhanced”.
